Test results as given in patent US20250295646A1, “METHODS OF USE OF T-TYPE CALCIUM CHANNEL MODULATORS” (Praxis Precision Medicines, Inc., priority 2022, published 2025).

Tests used:
gamma band EEG power = assay: qEEG: eyes open / eyes closed gamma band power; type: in vivo, human; details: Part B, beginning at 60 mg through 120 mg
Text: It appears a maximal effect in gamma reduction was not achieved.
The eyes open (EO) and eyes closed (EC) gamma absolute power for each individual was also estimated at specific time points across the study days.
(§1) The population PK model was used to generate Cave for NREM sigma absolute power and concentrations for EO and EC gamma absolute power. For NREM sigma absolute power, the Cave was computed for the final day of each dose level over the EEG collection interval. For EO and EC gamma absolute power, concentrations at 4 hours post-dose and 23.75 hours post-dose were generated on the final day of each dose level. The final population PKPD models for NREM sigma absolute power and EO and EC gamma absolute power were then used to generate corresponding EEG responses.

[1] = test system: sigma band EEG power during NREM sleep; assay: EEG/PSG: sigma band EEG power during NREM sleep; type: in vivo, human; details: for NREM Sigma Power Ratio from Baseline / NREM sigma power from baseline, LS Means: N = 10
Procedure: The effects of multiple doses of a wider dose range (Part A: 5, 10, 20 mg; Part B: 60, 80, 100, 120 mg) on sigma band EEG power during NREM sleep were also evaluated as part of the protocol described in Example 11, above. 24-hour EEG/PSG recordings were performed the day before dosing (baseline day) and after dosing on Days 4, 8, and 12 (for Part A) or Days 10, 17, 24, and 31 (for Part B). Part B also included placebo-treated participants for statistical comparisons.
The pharmacokinetic/pharmacodynamic (PKPD) effects of administration a compound of formula (II) on EEG were also evaluated. The recording of the NREM sigma absolute power was reported as a single summary value of a single night of sleep following each dose on pre-specified days (baseline and Days 4, 8 and 12 for Example 11, Part A and Days 10, 17, 24, and 31 for Part B, as set forth in Tables 22 and 23, above. Each NREM sigma absolute power value was paired with a model predicted average plasma concentration (Cave) that corresponded to the 24-hour EEG recording period on the respective study day. For example, if the period of EEG recording for an individual was from 6 am on Day 4 to 6 am on Day 5, then the corresponding Cave was calculated as the average of the individual's model-predicted concentrations (sampled every 30 minutes) from that same time period. The resulting PKPD data were analyzed in a mixed-effects modelling framework using NONlinear Mixed Effects Modeling (NONMEM) software. The change from baseline NREM sigma absolute power was specified as the outcome and the primary explanatory variable was the Cave of a compound of formula (II).
as §1

[2] = test system: adult patients with essential tremor; assay: Example 16 Part B: QUEST total score; type: in vivo, human; details: for QUEST total score, LS mean change from randomization baseline (Day 42): Formula (I) group; for QUEST total score, LS mean change from pre-dose baseline: Part B OLT
Text: Patients were scheduled for Safety Follow-up on Day 70 (±1 day) in the clinic for the final clinical trial assessment.

[3] = Phase 1 single ascending dose (Part A) pharmacokinetics of 20 mg tablet formulation 3; details: human, in vivo, oral, single 60 mg, geometric mean
Procedure: This was a 2-part, Phase 1 double blind, placebo controlled trial to assess the safety, tolerability, pharmacokinetics, and pharmacodynamics (including the KSS, the KDT, the SQSQ and 24-hour EEG recordings), of single, ascending (Part A: 20, 40, and 60 mg) and multiple, ascending (Part B: 20 and 40 mg for 8 days) doses of the 20 mg tablet (formulation 3) in healthy participants. […] Variability in Cmax and AUC increased with increasing dose following a single oral dose of the 20 mg tablet formulation (formulation 3) (FIG. 16).

CC(C)(C)NC(=O)CN1CCC(CNC(=O)c2cc(F)cc(Cl)c2)CC1.Cl [compound of formula (II), N-((1-(2-(tert-butylamino)-2-oxoethyl)piperidin-4-yl)methyl)-3-chloro-5-fluorobenzamide hydrochloride]
gamma band EEG power (gamma band EEG power): dose-related reduction | sigma band EEG power during NREM sleep, change from baseline ([1]; 5-120 mg, plateaued after Day 17 (80 mg)): dose-dependent decrease | NREM sigma power, Formula (II) v. Placebo Difference ([1]; Day 10): −0.597 | NREM sigma power, Formula (II) v. Placebo Ratio ([1]; Day 10): 0.550 | NREM Sigma Power Ratio from Baseline ([1]; Day 10 (60 mg)): 0.581 | NREM sigma power from baseline, LS Means ([1]; Day 10 (60 mg)): −0.542 | NREM sigma power, Formula (II) v. Placebo Difference ([1]; Day 17): −0.697 | NREM sigma power, Formula (II) v. Placebo Ratio ([1]; Day 17): 0.498 | NREM Sigma Power Ratio from Baseline ([1]; Day 17 (80 mg)): 0.646 | NREM sigma power from baseline, LS Means ([1]; Day 17 (80 mg)): −0.437 | NREM sigma power, Formula (II) v. Placebo Difference ([1]; Day 24): −0.729 | NREM sigma power, Formula (II) v. Placebo Ratio ([1]; Day 24): 0.482 | NREM Sigma Power Ratio from Baseline ([1]; Day 24 (100 mg)): 0.498 | NREM sigma power from baseline, LS Means ([1]; Day 24 (100 mg)): −0.698 | NREM sigma power, Formula (II) v. Placebo Difference ([1]; Day 31): −0.679 | NREM sigma power, Formula (II) v. Placebo Ratio ([1]; Day 31): 0.507 | NREM Sigma Power Ratio from Baseline ([1]; Day 31 (120 mg)): 0.574 | NREM sigma power from baseline, LS Means ([1]; Day 31 (120 mg)): −0.556

CC(C)(C)NC(=O)CN1CCC(CNC(=O)c2cc(F)cc(Cl)c2)CC1 [compound of formula (I), N-((1-(2-(tert-butylamino)-2-oxoethyl)piperidin-4-yl)methyl)-3-chloro-5-fluorobenzamide]
QUEST total score, LS mean change from randomization baseline (Day 42) ([2]; Day 70 follow-up): 1.741 | QUEST total score, LS mean change from pre-dose baseline ([2]; Day 7): −0.561 | QUEST total score, LS mean change from pre-dose baseline ([2]; Day 21): −5.933 | QUEST total score, LS mean change from pre-dose baseline ([2]; Day 42): −8.203 | QUEST total score, LS mean change from randomization baseline (Day 42) ([2]; Part B RWD, Day 56): −1.322 | Cmax ([3]; N = 6): ~130 ng/mL | AUC ([3]; read-out: AUC24): ~1910 ng·h/mL
